# From ChEMBL document CHEMBL1135560, “Parallel synthesis and anti-malarial activity of a sulfonamide library” (Bioorg Med Chem Lett, 2002)
# System: Plasmodium falciparum
# Assay: Antimalarial activity against chloroquine-resistant Plasmodium falciparum FcB1
# Assay type: functional, organism-based
row,SMILES,IC50 [µM]
1,Clc1ccc2c(NCCCN3CCN(CCCNc4ccnc5cc(Cl)ccc45)CC3)ccnc2c1,0.112

# System: MRC5
# Assay: Cytotoxicity tests were performed on a human diploid embryonic lung cell line (MRC5) using the colorimetric MTT assay
# Assay type: functional, cell-based
row,SMILES,IC50 [µM]
1,CCN(CC)CCCC(C)Nc1ccnc2cc(Cl)ccc12 (stereo unspecified) [CHLOROQUINE],50

# System: Plasmodium falciparum
# Assay: Growth inhibition of Plasmodium falciparum at 10 nM
# Assay type: functional
row,SMILES,inhibition at 0.01 µM [%]
1,Cc1ccc(S(=O)(=O)NCCCN2CCN(CCCNc3ccnc4cc(Cl)ccc34)CC2)cc1,54
2,O=S(=O)(Cc1ccccc1)NCCCN1CCN(CCCNc2ccnc3cc(Cl)ccc23)CC1,4
3,Cc1ccc([N+](=O)[O-])cc1S(=O)(=O)NCCCN1CCN(CCCNc2ccnc3cc(Cl)ccc23)CC1,56
4,O=S(=O)(NCCCN1CCN(CCCNc2ccnc3cc(Cl)ccc23)CC1)c1ccc(Cl)cc1,26
5,O=[N+]([O-])c1ccccc1S(=O)(=O)NCCCN1CCN(CCCNc2ccnc3cc(Cl)ccc23)CC1,0
6,CC(=O)c1cccc(S(=O)(=O)NCCCN2CCN(CCCNc3ccnc4cc(Cl)ccc34)CC2)c1,22
7,O=[N+]([O-])c1cccc(S(=O)(=O)NCCCN2CCN(CCCNc3ccnc4cc(Cl)ccc34)CC2)c1,48
8,O=S(=O)(NCCCN1CCN(CCCNc2ccnc3cc(Cl)ccc23)CC1)c1cc(C(F)(F)F)ccc1Cl,60
9,CCS(=O)(=O)NCCCN1CCN(CCCNc2ccnc3cc(Cl)ccc23)CC1,1
10,COc1ccc(Br)cc1S(=O)(=O)NCCCN1CCN(CCCNc2ccnc3cc(Cl)ccc23)CC1,64
11,O=S(=O)(NCCCN1CCN(CCCNc2ccnc3cc(Cl)ccc23)CC1)c1ccc(F)cc1,20
12,O=S(=O)(/C=C/c1ccccc1)NCCCN1CCN(CCCNc2ccnc3cc(Cl)ccc23)CC1,0
13,O=S(=O)(NCCCN1CCN(CCCNc2ccnc3cc(Cl)ccc23)CC1)c1ccccc1F,11
14,CC(C)S(=O)(=O)NCCCN1CCN(CCCNc2ccnc3cc(Cl)ccc23)CC1,25
